According to publication PMC7661967, “Magnetic Resonance Molecular Imaging of Extradomain B Fibronectin Improves Imaging of Pancreatic Cancer Tumor Xenografts” (Frontiers in Oncology, 2020):
Entries after “also recorded” stand apart in the source; their conditions may differ. No end group written: not given here.

Key:
[1] = test system: BxPC3-GFP-Luc intrapancreatic tumor xenografts; assay: MRMI of BxPC3-GFP-Luc intrapancreatic tumor xenografts (3T); type: in vivo, human cells in female nu/nu mice
Procedure: (§1) For flank xenograft models, 4 × 10^6 Capan-1 cells suspended in 100 μL of a 6 mg/mL Matrigel (Corning, Corning, NY) solution was injected subcutaneously into the flank of 8-week-old female nu/nu mice. The tumor bearing mice were imaged after tumor volumes exceeded 300 mm^3. For orthotopic intrapancreatic models, the pancreas of 4-week-old female nu/nu mice were surgically exposed via a ~10 mm incision in the left ventral abdomen and the application of gentle pressure to express the spleen and associated pancreatic tissue. 1 × 10^6 BxPC3-GFP-Luc or PANC-1-GFP-Luc cells suspended in 100 μL of a Matrigel solution (6 mg/mL) was injected into the pancreatic tissue using an insulin syringe with a 31G needle. Any leakage of cell suspension was lavaged with DPBS twice to prevent intraabdominal seeding PaCa cells. The peritoneal fascia was closed with absorbable stitches, and the dermis closed with stainless steel wound clips. Prior to imaging, growth of tumor was verified by bioluminescence imaging with intraperitoneal injection of d-luciferin on IVIS Spectrum system (Perkin Elmer, Waltham, MA).
(§2) Mice bearing intrapancreatic tumors were anesthetized and a tail vein catheter was inserted. Image acquisition was performed on a MR Solutions 3T MRS 3000 scanner with a mouse radiofrequency coil. Axial images were obtained using a Fast Spin Echo (FSE) MRI sequence (305 ms TR, 11 ms TE, 90° FA, 4 cm × 4 cm FOV, 1 mm slice thickness, 10 slices, echo train length = 4, echo spacing = 11 ms, 4 averages, 256 × 256 matrix, 0.0156 × […] cm/pixel resolution) with respiratory gating. Images were acquired before contrast and at different time points after contrast injection at a dose of 0.1 mmol/kg (100 μL). For competitive binding experiments, a 5:1 molar ratio of free ZD2 peptide to MT218 was injected in mice bearing intrapancreatic BxPC3 tumor xenografts (n = 3) at a dose of 0.1 mmol MT218/kg (100 μL). Images obtained on the MR Solutions 3T scanner were normalized using the Surscalereader.exe (MR Solutions, Guildford, UK) program supplied.
(§3) Image files were exported and analyzed in Horus software. ROIs were drawn in the tumor, liver, kidney, and muscle. Muscle ROIs were taken from the muscle, with other structures (liver, kidney, tumor) identified after comparison with published images and comparison with anatomical landmarks or bioluminescent imaging. Pancreatic lesions were localized using the liver, kidney, and spleen as anatomical landmarks. […] Size of ROIs drawn for image analysis are summarized in Supplementary Table 1. The contrast-to-noise ratio of the tumor (CNR) was calculated using the following equation, where σnoise is the standard deviation of intensities from an ROI drawn outside of the mouse body:
(§4) CNR=Mean IntensityTumor-Mean IntensityMuscle/σnoise.
(§5) Image subtraction was performed on images adjusted to the same window and level in FIJI open-source software.
(§6) Image contrast was reported as fold enhancement of contrast to noise ratio of post-contrast images over pre-contrast images using Fold Enhancement = CNRpost/CNRpre. Statistical analysis of CNR was performed in Minitab Express (Minitab Inc., State College, PA). One-way ANOVA with Fisher Individual Tests for Differences of Means post-hoc testing was performed to determine statistical significance between >2 means (p < 0.05). Student's T test was used to determine statistical significance between 2 means (p < 0.05).

EDB-FN [2] = conditions: cited from earlier work
Procedure: ZD2 targeted MRI contrast agents have been developed and tested for MRMI of EDB-FN in aggressive breast cancer and prostate cancer models ([15], [16], [20]). The targeted contrast agent ZD2-N3-Gd(HP-DO3A) (MT218) was developed by conjugating ZD2 peptide to a clinical macrocyclic contrast agent Gd(HP-DO3A) ([16], [20]). […] MT218 is a small molecular conjugate of ZD2 peptide to a macrocyclic clinical MRI contrast agent Gd(HP-DO3A). The binding affinity of MT218 to EDB-FN was measured to be 3.2 ± 0.2 μM, which is similar to that of a previously targeted contrast agent ZD2-Gd(HP-DO3A) ([23]). The T1 and T2 relaxivities of MT218 were measured to be 6.07 ± 1.13 s^−1 mM^−1 and 8.20 ± 0.18 s^−1 mM^−1, respectively, at 3 T. T1 and T2 relaxivities of Gd(HP-DO3A) were measured to be 3.20 ± 0.96 s^−1 mM^−1 and 5. ...

[3] = test system: PANC-1-GFP-Luc intrapancreatic tumor xenografts; assay: MRMI of PANC-1-GFP-Luc intrapancreatic tumor xenografts (3T); type: in vivo, human cells in female nu/nu mice; conditions: 0.1 mmol/kg, 10 min post-injection, n = 6
Procedure: as §1, §2, §3, §4, §5, §6

[4] = test system: Capan-1 flank tumor xenografts; assay: MRMI of Capan-1 flank tumor xenografts (7T); type: in vivo, human cells in female nu/nu mice; conditions: 0.1 mmol/kg
Procedure: as §1
Flank tumor-bearing mice were anesthetized and a tail vein catheter inserted. MR image acquisition was performed on a 7T Biospin (Bruker, Billerica, MA) preclinical small animal scanner with a volume radiofrequency coil. Axial images were obtained using a multi-spin multi-echo (MSME) MRI sequence (500 ms TR, 8.1 ms TE, 90° FA, 4.50 cm × 4.50 cm FOV, 1.50 mm slice thickness, 16 slices, 2 averages, 200 × 200 matrix, 0.0225 × 0.0225 cm/pixel resolution). Contrast agents were injected at a dose of 0.1 mmol/kg (100 μL) via the tail vein catheter, followed by a saline flush. Images of the tumors were acquired before contrast and at various time points after contrast administration. Gd(HP-DO3A) was used as a control.
as §3, §4, §5, §6

[5] = T1 and T2 relaxivity measurement at 3T; type: physicochemical; conditions: 0-2 mM MT218 in DPBS buffer
Procedure: The T1 and T2 values of MT218 and Gd(HP-DO3A) solutions were determined using a 3T MRS 3000 scanner (MR Solutions, Guildford, UK). Solutions of MT218 were prepared at concentrations of 0, 0.25, 0.5, 1, and 2 mM in DPBS buffer (Gibco, Gaithersburg, MD). T1 values were measured using an inversion recovery-fast low angle shot (IR-FLASH) sequence (τ = 10 ms, TE = 4 ms, FA = 8°, echoes/frames = 128, FOV = 40 mm × 40 mm, slice thickness = 2 mm, number of averages = 1, time delay = 4,000 ms, sample period = 200, matrix = 256 × 128). T2 values were obtained using a multi-echo multi-slice (MEMS) sequence (TE = 15 ms, […], echoes = 10, FOV: 40 mm × 40 mm, slice thickness = 1 mm, number of averages = 1, matrix = 256 × 192). The r1 and r2 relaxivities were calculated from the slopes of 1/T1 and 1/T2 vs. Gd concentration plots, respectively.

EDB-FN [6] = assay: Fluorescence staining of frozen mouse tumor xenograft and normal tissue sections; type: binding, human PaCa xenografts in nu/nu mice; conditions: for staining: ZD2-Cy5.5 500 nM, room temperature 2.5 h, BC-1 1:400, 4°C overnight
Procedure: For assessment of binding specificity of ZD2 peptide, flash frozen samples of tumor and normal tissues were collected from the euthanized tumor bearing mice and embedded in optimal cutting temperature media. The embedded samples were then immersed in liquid nitrogen for 5 min and transferred to −80°C for storage before cryosectioning. Tissue sections were blocked for 1 h in PBS containing 0.05% Tween-20 and 10% normal goat serum (Gibco, Gaithersburg, MD) and then stained with BC-1 primary monoclonal antibody (1:400) or ZD2-Cy5.5 (500 nM) at 4°C overnight or room temperature incubation for 2.5 h, respectively, and then washed with PBS-T buffer. Secondary Alexa Fluor 594 anti-rabbit was incubated with the BC-1 treated sections for 1 h at room temperature (1:1,000). For the blocking experiment, the tissue sections were first incubated with an excess of BC1 antibody at 4°C overnight, then washed three times with PBS-T. The sections were then incubated with ZD2-Cy5.5 at room temperature incubation for 2.5 h. The stained sections were washed with PBS-T buffer and images were acquired on an Olympus FV1000 (Waltham, MA) confocal microscope using pre-programmed emission and excitation filters for Cy5.5 (excitation: 635 nm; emission: 693 nm) and DAPI (excitation: 405 nm; emission: 461 nm), using a 10 × objective lens.

EDB-FN [7] = assay: ZD2-Cy5.5 staining of human pancreatic tissue; type: binding; conditions: 500 nM, 1 h, 37°C, confocal
Procedure: Tissue sections from PaCa patients (Case Comprehensive Cancer Center, Cleveland, OH) were deparaffinized with xylene, ethanol, and washed with water. Blocking was performed with 10% goat serum (Invitrogen, Carlsbad, CA) in PBS with 0.1% Tween 20 (PBS-T) for 30 min and incubated with 500 nM ZD2-Cy5.5 in PBS-T for 1 h at 37°C. Following three washes with PBS-T, the sections were mounted using Fluoroshield mounting medium (Abcam, Cambridge, UK). Images were acquired on a FV1000 (Olympus, Waltham, MA) confocal microscope using pre-programmed emission and excitation filters for Cy5.5 (excitation: 635 nm; emission: 693 nm) and DAPI (excitation: 405 nm; emission: 461 nm), using a 10 × objective lens. All tissue samples were imaged at the same laser power and sensor gain. Images were generated from single-channel grayscale images using FIJI software.

[8] = target: extradomain B fibronectin in human PaCa tumor xenografts in mice (human (endogenous in BxPC3, Capan-1 and PANC-1 xenografts))
EDB fragment of FN = assay: MST; NT-647-labelled EDB fragment at a fixed concentration, MT218 varied; 50 mM PBS w/0.05% Tween-20; 25°C; Monolith NT.115
[9] = target: extradomain B fibronectin in human PaCa tumor xenografts in mice (human (endogenous in BxPC3, Capan-1 and PANC-1 xenografts)); remark: listed apart in the source
[10] = 0.1 mmol/kg, 10 min post-injection, n = 3

For TVRTSAD [ZD2], the “effect of free ZD2 peptide on binding of MT218” value ([1]; 5:1 molar ratio free ZD2 peptide to MT218, co-injection, n = 3) is given as “blocked the binding of the MT218 to the tumors; also recorded: inhibited the binding of MT218” and the “binding to EDB-FN (specificity)” value (EDB-FN [2]) is given as “binds with high specificity to EDB-FN”.

In the case of `CC(O)CN1CCN(CC(=O)[O-])CCN(CC(=O)[O-])CCN(CC(=O)[O-])CC1.[Gd+3]` (stereo not drawn) [Gd(HP-DO3A), reference compound], the “tumor CNR increase compared with MT218” value ([1]; 0.1 mmol/kg, 10 min, p < 0.01) is reported as “significantly less than that with MT218”, the “tumor CNR increase (post/pre)” value ([1]; 0.1 mmol/kg, 10 min post-injection (maximum for MT218), n = 3) is reported as “approximately 2.5 fold” and the tumor contrast enhancement [1, 10] is reported as “modest contrast enhancement”. The “tumor enhancement, subtraction images” value [1, 10] was “less intratumoral signal enhancement”, the tumor contrast enhancement ([1]; 0.1 mmol/kg, 20 min post-injection, n = 3) was “reduced to background level” and the “intratumoral CNR increase (post/pre)” value [3] was 2.35 fold. For the same molecule, the tumor contrast enhancement [3] was “did not produce significant tumor contrast enhancement”, the “tumor signal enhancement, subtraction images” value [3] was “little change” and the “contrast enhancement in tumor core” value ([4]; after injection) was “did not exhibit significant tumor core enhancement”. For the same molecule, the “enhancement in tumor periphery, subtraction images” value ([4]; early time points (5–15 min post-contrast)) was “modest peripheral contrast enhancement”, the “intratumoral CNR increase (post/pre)” value ([4]; for the duration of the experiment, n = 5) was 1.77 fold and the “contrast enhancement throughout tumors, subtraction images” value ([4]; later time points (25–35 min) for MT218, all time points for Gd(HP-DO3A)) was “little to no intratumoral contrast”. The “intratumoral CNR increase compared with MT218” value ([4]; p < 0.01) was “significantly less than MT218”, the “T1 relaxivity (r1)” value ([5]; IR-FLASH) was 3.20 ± 0.96 s⁻¹ mM⁻¹ and the “T2 relaxivity (r2)” value ([5]; MEMS) was 5.12 ± 0.18 s⁻¹ mM⁻¹.

In the case of “ZD2-Cy5.5: peptide-fluorophore conjugate (TVRTSAD; also: Cy5.5 conjugate, end of attachment not given here)”, the staining (EDB-FN [6]; BxPC3, Capan-1 and PANC-1 tumor tissues) is reported as “high in all three tumor tissues”, the “ZD2-Cy5.5 binding after blocking” value (EDB-FN [6]; flash frozen tumor tissues pre-incubated with excess BC-1 antibody, 4°C overnight, then ZD2-Cy5.5) is reported as “No fluorescent signal; also recorded: blocked” and the staining (EDB-FN [6]; normal pancreatic and muscle tissues) is reported as “undetectable; also recorded: No staining”. For the same molecule, the “ZD2-Cy5.5 binding / EDB-FN expression” value (EDB-FN [7]; human PaCa tissue) was “high EDB-FN expression and high”, the “ZD2-Cy5.5 binding / EDB-FN expression” value (EDB-FN [7]; normal pancreatic tissue) was “little expression and low” and the “ZD2-Cy5.5 binding / EDB-FN expression” value (EDB-FN [7]; precancerous PanIN tissue) was “moderate expression”.

B1: ZD2-N3-Gd(HP-DO3A) (peptide)
peptide: TVRTSAD
modifications: also: conjugated to Gd(HP-DO3A) via N3, end of attachment not given here
B1 gave a tumor CNR fold increase, T1-weighted MRI, BxPC3-GFP-Luc intrapancreatic model, MT218 0.1 mmol/kg without the free ZD2 peptide [8] of 4.5 fold, a tumor contrast-to-noise ratio (CNR) fold increase, T1-weighted MRI, BxPC3-GFP-Luc intrapancreatic model, MT218 0.1 mmol/kg co-injected with a 5-fold excess of free ZD2 peptide [8] of 2.5 fold and a Kd (EDB fragment of FN) of 3.2 µM. It also gave a tumor CNR fold increase, T1-weighted MRI, Capan-1 flank xenografts, MT218 0.1 mmol/kg, time course 5-35 min post-injection (maximum at 15 min) [9] of 4.8 fold.
